These are literature values, as cited in PubChem BioAssay AID1259409 (Chemical Carcinogenesis Research Information System (CCRIS), 2018).

“And” between values parts separate entries of the source, which are not always exact repeats. Equal values may be shown once.

This data set deals with rodent chemically induced tumor inhibition, incidence and multiplicity. The data set can be described thus: CCRIS tumor inhibitor studies.

Take `CCCCCCCCCCCCOC(=O)c1cc(O)c(O)c(O)c1`: the “tumour outcome (control, treated, inhibition, significance)” value (Carcinogen: 7,12-DIMETHYLBENZ[A]ANTHRACENE, 57-97-6, Dose [Inhibitor]: 0, 10 UMOL IN 0.4 ML ACETONE 20 MIN PRIOR TO EACH PROMOTER DOSE (STUDY DURATION: 47 WK), Route [Inhibitor]: DERMAL, Species: MOUSE, Strain/Sex: CF-1/FEMALE, Target Tissue: Type of Lesion: SKIN: CARCINOMA, Dose [Carcinogen]: 100 NMOL IN 0.2 ML ACETONE ONCE) is 67%, 17%, 75%, not calculated and the “tumour outcome (control, treated, inhibition, significance)” value (Carcinogen: 7,12-DIMETHYLBENZ[A]ANTHRACENE, 57-97-6, Dose [Inhibitor]: 0, 10 UMOL IN 0.4 ML ACETONE 20 MIN PRIOR TO EACH PROMOTER DOSE (STUDY DURATION: 47 WK), Route [Inhibitor]: DERMAL, Species: MOUSE, Strain/Sex: CF-1/FEMALE, Target Tissue: Type of Lesion: SKIN: PAPILLOMA, Dose [Carcinogen]: 100 NMOL IN 0.2 ML ACETONE ONCE) is reported as 94%, 90%, 4%, not calculated.

Regarding `O=c1c(O)c(-c2ccc(O)cc2O)oc2cc(O)cc(O)c12`, the “tumour outcome (control, treated, inhibition, significance)” value runs as follows: (Carcinogen: 4-NITROQUINOLINE-1-OXIDE [56-57-5], Dose [Inhibitor]: 100 PPM IN DIET FOR 10 WK BEGINNING 1 WK PRIOR TO FIRST CARCINOGEN DOSE (STUDY DURATION: 32 WK), Route [Inhibitor]: ORAL, Species: RAT, Strain/Sex: F344/MALE, Target Tissue: Type of Lesion: TONGUE: SQUAMOUS CELL PAPILLOMA, Dose [Carcinogen]: 20 PPM FOR 8 WK IN DRINKING WATER (STUDY DURATION: 32 WK), Promoter: NONE) 9/25 (36%), 3/19 (16%), 56%, not significant and 14/25 (56%), 1/19 (5%), 91%, p=0.0004; (Carcinogen: 4-NITROQUINOLINE-1-OXIDE [56-57-5], Dose [Inhibitor]: 100 PPM IN DIET FOR 22 WK BEGINNING 1 WK POST LAST CARCINOGEN DOSE (STUDY DURATION: 31 WK), Route [Inhibitor]: ORAL, Species: RAT, Strain/Sex: F344/MALE, Target Tissue: Type of Lesion: TONGUE: SQUAMOUS CELL PAPILLOMA, Dose [Carcinogen]: 20 PPM FOR 8 WK IN DRINKING WATER (STUDY DURATION: 32 WK), Promoter: NONE) 9/25 (36%), 0/20 (0%), 100%, p=0.003 and 14/25 (56%), 1/20 (5%), 91%, p=0.0003; (Carcinogen: 4-NITROQUINOLINE-1-OXIDE [56-57-5], Dose [Inhibitor]: 500 PPM IN DIET FOR 10 WK BEGINNING 1 WK PRIOR TO FIRST CARCINOGEN DOSE (STUDY DURATION: 32 WK), Route [Inhibitor]: ORAL, Species: RAT, Strain/Sex: F344/MALE, Target Tissue: Type of Lesion: TONGUE: SQUAMOUS CELL PAPILLOMA, Dose [Carcinogen]: 20 PPM FOR 8 WK IN DRINKING WATER (STUDY DURATION: 32 WK), Promoter: NONE) 9/25 (36%), 2/20 (10%), 72%, p=0.045 and 14/25 (56%), 0/20 (0%), 100%, p=0.00003; (Carcinogen: 4-NITROQUINOLINE-1-OXIDE [56-57-5], Dose [Inhibitor]: 500 PPM IN DIET FOR 22 WK BEGINNING 1 WK POST LAST CARCINOGEN DOSE (STUDY DURATION: 31 WK), Route [Inhibitor]: ORAL, Species: RAT, Strain/Sex: F344/MALE, Target Tissue: Type of Lesion: TONGUE: SQUAMOUS CELL PAPILLOMA, Dose [Carcinogen]: 20 PPM FOR 8 WK IN DRINKING WATER (STUDY DURATION: 32 WK), Promoter: NONE) 14/25 (56%), 1/20 (5%), 91%, p=0.0003.

As for `CCCC(C(=O)OCCN(CC)CC)(c1ccccc1)c1ccccc1`, the “tumour outcome (control, treated, inhibition, significance)” value (Carcinogen: URETHANE, 51-79-6, Dose [Inhibitor]: 0, 50 MG/KG ONCE AT 24 HR AND 1 HR PRIOR TO CARCINOGEN DOSE THEN ONCE 24 HR AND 48 HR POST CARCINOGEN DOSE (STUDY DURATI, Route [Inhibitor]: INTRAPERITONEAL, Species: MOUSE, Strain/Sex: BALB/MALE, FEMALE, Target Tissue: Type of Lesion: LUNG: TUMOR, Dose [Carcinogen]: 0.5 G/KG IN 0.9% SALINE ONCE, Promoter: NONE USED) is reported as 94%, 91%, 3%, not significant.

Take `COc1ccc([SeH])cc1`: the “tumour outcome (control, treated, inhibition, significance)” value (Carcinogen: BENZO[A]PYRENE, 50-32-8, Dose [Inhibitor]: 0, 3.3 UMOL/G DIET BEGINNING 1 WK PRIOR TO CARCINOGEN TREATMENT AND CONTINUING FOR 1 WK POST CARCINOGEN TREATMENT FOLLOW, Route [Inhibitor]: ORAL, Species: MOUSE, Strain/Sex: CD-1/FEMALE, Target Tissue: Type of Lesion: FORESTOMACH: PAPILLOMA, Dose [Carcinogen]: 1 MG IN 0.2 ML CORN OIL 2/WK FOR 4 WK, Promoter: NONE USED) is 85%, 75%, 12%, not significant.

On to `Cc1c(O)cc2c(c1C)OC(C)(CCCC(C)CCCC(C)CCCC(C)C)CC2` (stereo not drawn), for which the “tumour outcome (control, treated, inhibition, significance)” value runs as follows: (Carcinogen: N-NITROSODIETHYLAMINE, 55-18-5, Dose [Inhibitor]: 0, 5% IN BASAL DIET BEGINNING AT 8 WK OF AGE AND CONTINUING FOR 22 MO (STUDY DURATION: 22 MO), Route [Inhibitor]: ORAL, Species: MOUSE, Strain/Sex: 6HF1/MALE, Target Tissue: Type of Lesion: ESOPHAGUS: SQUAMOUS CELL CARCINOMA, Dose [Carcinogen]: 100 MG/L IN DRINKING WATER DURING 11-13 WK OF AGE, Promoter: NONE USED) 6/50 (12%), 0/50 (0%), 100%, not calculated; (Carcinogen: N-NITROSODIETHYLAMINE, 55-18-5, Dose [Inhibitor]: 0, 5% IN BASAL DIET BEGINNING AT 8 WK OF AGE AND CONTINUING FOR 22 MO (STUDY DURATION: 22 MO), Route [Inhibitor]: ORAL, Species: MOUSE, Strain/Sex: 6HF1/MALE, Target Tissue: Type of Lesion: FORESTOMACH: SQUAMOUS CELL CARCINOMA, Dose [Carcinogen]: 100 MG/L IN DRINKING WATER DURING 11-13 WK OF AGE, Promoter: NONE USED) 82%, 72%, 12%, not calculated; (Carcinogen: N-NITROSODIETHYLAMINE, 55-18-5, Dose [Inhibitor]: 0, 5% IN BASAL DIET BEGINNING AT 8 WK OF AGE AND CONTINUING FOR 22 MO (STUDY DURATION: 22 MO), Route [Inhibitor]: ORAL, Species: MOUSE, Strain/Sex: 6HF1/MALE, Target Tissue: Type of Lesion: LIVER: TUMOR, Dose [Carcinogen]: 100 MG/L IN DRINKING WATER DURING 11-13 WK OF AGE, Promoter: NONE USED) 39/50 (78%), 40/50 (80%), -3%, not calculated; (Carcinogen: N-NITROSODIETHYLAMINE, 55-18-5, Dose [Inhibitor]: 0, 5% IN BASAL DIET BEGINNING AT 8 WK OF AGE AND CONTINUING FOR 22 MO (STUDY DURATION: 22 MO), Route [Inhibitor]: ORAL, Species: MOUSE, Strain/Sex: 6HF1/MALE, Target Tissue: Type of Lesion: LUNG: TUMOR, Dose [Carcinogen]: 100 MG/L IN DRINKING WATER DURING 11-13 WK OF AGE, Promoter: NONE USED) 42/50 (84%), 24/50 (48%), 43%, p<0.05.

For `Cc1csc(NC(=O)C(C(=O)OC(C)C)=C2SCS2)n1`, the “tumour outcome (control, treated, inhibition, significance)” value reads like this: (Carcinogen: BENZO[A]PYRENE [50-32-8], Dose [Inhibitor]: 0, 150 MG/KG BW IN TRIOCTANOIN 1 D AND 2 HR PRIOR TO CARCINOGEN DOSE (STUDY DURATION: 21 WK), Route [Inhibitor]: GAVAGE, Species: MOUSE, Strain/Sex: CD-1/FEMALE, Target Tissue: Type of Lesion: SKIN: PAPILLOMA, Dose [Carcinogen]: 0.3 UMOL IN 0.2 ML ACETONE ONCE, Promoter: 12-O-TETRADECANOYLPHORBOL-13-ACETATE [16561-29-8]) 92%, 73%, 21%, not calculated; (Carcinogen: BENZO[A]PYRENE [50-32-8], Dose [Inhibitor]: 150 MG/KG IN 10 µL TRIOCTANOIN ONCE 1 D AND 2 HR PRIOR TO CARCINOGEN DOSE (STUDY DURATION: 21 WK), Route [Inhibitor]: GAVAGE, Species: MOUSE, Strain/Sex: CD-1/FEMALE, Target Tissue: Type of Lesion: SKIN: PAPILLOMA, Dose [Carcinogen]: 0.3 UMOL IN 0.2 ML ACETONE ONCE (STUDY DURATION: 21 WK), Promoter: 12-O-TETRADECANOYLPHORBOL-13-ACETATE [16561-29-8]) 92%, 75%, 18%, not calculated; (Carcinogen: VINYL CARBAMATE, 15805-73-9, Dose [Inhibitor]: 0, 150 MG/KG BW ONCE AT 2 HR AND 1 D PRIOR TO CARCINOGEN DOSE (STUDY DURATION: 22 WK), Route [Inhibitor]: GAVAGE, Species: MOUSE, Strain/Sex: CD-1/FEMALE, Target Tissue: Type of Lesion: SKIN: PAPILLOMA, Dose [Carcinogen]: 11.5 UMOL IN 0.2 ML ACETONE ONCE, Promoter: 12-O-TETRADECANOYLPHORBOL-13-ACETATE, 16561-29-8) 58%, 37%, 36%, not calculated.

Consider `O=C1OC(c2ccc(O)cc2)Cc2cccc(O)c21` (stereo not drawn), for which the “tumour outcome (control, treated, inhibition, significance)” value by setting is: (Carcinogen: AZOXYMETHANE [25843-45-2], Dose [Inhibitor]: 200 PPM IN DIET FOR 4 WK BEGINNING 1 WK PRIOR TO FIRST CARCINOGEN DOSE (STUDY DURATION: 35 WK), Route [Inhibitor]: ORAL, Species: RAT, Strain/Sex: F344/MALE, Target Tissue: Type of Lesion: COLON: ADENOMA, Dose [Carcinogen]: 15 MG/KG BW 1X/WK FOR 3 WK (STUDY DURATION: 35 WK), Promoter: NONE) 6/28 (21%), 2/29 (7%), 67%, not significant; (Carcinogen: AZOXYMETHANE [25843-45-2], Dose [Inhibitor]: 200 PPM IN DIET FOR 4 WK BEGINNING 1 WK PRIOR TO FIRST CARCINOGEN DOSE (STUDY DURATION: 35 WK), Route [Inhibitor]: ORAL, Species: RAT, Strain/Sex: F344/MALE, Target Tissue: Type of Lesion: COLON: CARCINOMA, Dose [Carcinogen]: 15 MG/KG BW 1X/WK FOR 3 WK (STUDY DURATION: 35 WK), Promoter: NONE) 8/28 (29%), 10/29 (34%), -17%, not significant; (Carcinogen: AZOXYMETHANE [25843-45-2], Dose [Inhibitor]: 200 PPM IN DIET FOR 4 WK BEGINNING 1 WK PRIOR TO FIRST CARCINOGEN DOSE (STUDY DURATION: 35 WK), Route [Inhibitor]: ORAL, Species: RAT, Strain/Sex: F344/MALE, Target Tissue: Type of Lesion: SMALL INTESTINE: CARCINOMA, Dose [Carcinogen]: 15 MG/KG BW 1X/WK FOR 3 WK (STUDY DURATION: 35 WK), Promoter: NONE) 7/28 (25%), 4/29 (14%), 44%, not significant.
